Results as given in US8748368B2, “Methods for preserving organs and tissues” (DYAX Corp., priority 2002, dated 2014).
Positions of bridges follow the written chain, without caps; N, C: chain ends. No end group written: not given here.

Experiments:
Assay in all cases: Affinity (Ki,app) for protease
Type in all cases: biochemical
[1] = biological target: T1, human urine kallikrein (Homo sapiens, UniProt P06870)
T1 construct: from tissue; host or cells: urine (from the name only)

[2] = biological target: T2, porcine pancreatic kallikrein (Sus scrofa, UniProt P00752)
T2 construct: from tissue; host or cells: pancreas (from the name only)

[3] = biological target: T3, human C1r, activated (Homo sapiens, UniProt P00736)
T3 sequence (P00736 18-463 limits assumed): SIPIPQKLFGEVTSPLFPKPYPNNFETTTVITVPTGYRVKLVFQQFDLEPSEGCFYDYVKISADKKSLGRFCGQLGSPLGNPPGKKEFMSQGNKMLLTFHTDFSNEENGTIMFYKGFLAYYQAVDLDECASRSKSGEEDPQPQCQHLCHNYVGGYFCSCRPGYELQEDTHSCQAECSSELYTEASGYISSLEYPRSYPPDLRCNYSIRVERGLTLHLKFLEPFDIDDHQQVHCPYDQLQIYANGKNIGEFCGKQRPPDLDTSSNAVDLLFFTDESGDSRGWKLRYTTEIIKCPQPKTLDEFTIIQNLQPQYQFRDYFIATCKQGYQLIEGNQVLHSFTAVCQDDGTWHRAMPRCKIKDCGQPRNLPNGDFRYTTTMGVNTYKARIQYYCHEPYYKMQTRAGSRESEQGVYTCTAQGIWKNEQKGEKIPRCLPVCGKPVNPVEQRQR
T3 sequence (P00736 464-705 limits assumed): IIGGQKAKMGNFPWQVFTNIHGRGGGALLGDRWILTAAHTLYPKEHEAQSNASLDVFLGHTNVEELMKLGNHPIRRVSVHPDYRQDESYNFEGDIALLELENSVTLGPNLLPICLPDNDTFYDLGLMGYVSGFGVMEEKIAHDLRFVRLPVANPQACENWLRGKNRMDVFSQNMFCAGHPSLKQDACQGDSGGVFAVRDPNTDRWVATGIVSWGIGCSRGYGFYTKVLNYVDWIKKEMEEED

[4] = biological target: T4, human C1s, activated (Homo sapiens, UniProt P09871)
T4 sequence (P09871 16-437 limits assumed): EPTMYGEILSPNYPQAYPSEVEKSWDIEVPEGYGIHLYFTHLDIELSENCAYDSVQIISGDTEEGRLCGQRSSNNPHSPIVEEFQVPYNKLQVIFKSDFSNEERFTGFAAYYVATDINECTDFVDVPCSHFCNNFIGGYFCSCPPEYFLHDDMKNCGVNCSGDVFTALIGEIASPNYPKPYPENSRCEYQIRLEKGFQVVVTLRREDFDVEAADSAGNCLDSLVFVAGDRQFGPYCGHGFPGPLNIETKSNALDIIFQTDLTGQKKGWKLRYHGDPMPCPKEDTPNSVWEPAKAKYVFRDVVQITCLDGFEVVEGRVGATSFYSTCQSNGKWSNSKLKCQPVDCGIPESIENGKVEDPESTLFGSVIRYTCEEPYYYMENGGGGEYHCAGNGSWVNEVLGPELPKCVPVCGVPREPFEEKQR
T4 sequence (P09871 438-688 limits assumed): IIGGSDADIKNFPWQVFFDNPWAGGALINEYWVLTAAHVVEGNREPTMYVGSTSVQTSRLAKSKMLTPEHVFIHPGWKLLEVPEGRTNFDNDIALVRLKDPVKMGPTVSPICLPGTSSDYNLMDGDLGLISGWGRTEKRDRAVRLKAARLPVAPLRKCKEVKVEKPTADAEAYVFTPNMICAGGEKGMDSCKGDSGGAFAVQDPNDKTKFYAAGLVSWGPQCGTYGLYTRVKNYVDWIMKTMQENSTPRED

[5] = biological target: T5, human plasma factor XIa (Homo sapiens, UniProt P03951)
T5 construct: human plasma factor XIa; from tissue; host or cells: plasma (from the name only)

[6] = biological target: T6, human plasmin (Homo sapiens, UniProt P00747)
T6 construct: human plasmin

[7] = biological target: T7, human neutrophil elastase (Homo sapiens, UniProt P08246)
T7 sequence (P08246 30-267): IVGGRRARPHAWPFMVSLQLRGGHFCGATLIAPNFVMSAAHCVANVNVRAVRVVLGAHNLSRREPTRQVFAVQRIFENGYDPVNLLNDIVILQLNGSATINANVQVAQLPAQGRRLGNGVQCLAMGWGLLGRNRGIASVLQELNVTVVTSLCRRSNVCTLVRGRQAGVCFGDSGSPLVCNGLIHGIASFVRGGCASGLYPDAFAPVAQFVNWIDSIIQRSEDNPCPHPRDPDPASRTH

[8] = biological target: T8, human plasma thrombin (Homo sapiens, UniProt P00734)
T8 construct: human plasma thrombin; from tissue; host or cells: plasma (from the name only)

[9] = biological target: human plasma factor XIIa
Sequence of human plasma factor XIIa (P00748 373-615 limits assumed): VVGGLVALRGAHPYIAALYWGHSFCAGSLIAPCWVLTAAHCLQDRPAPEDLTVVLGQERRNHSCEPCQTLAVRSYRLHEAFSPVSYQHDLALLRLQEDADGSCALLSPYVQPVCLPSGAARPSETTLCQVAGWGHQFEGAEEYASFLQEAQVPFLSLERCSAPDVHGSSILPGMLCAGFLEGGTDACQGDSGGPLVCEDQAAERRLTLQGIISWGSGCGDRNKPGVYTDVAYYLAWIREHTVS

T2 sequence (P00752 8-246): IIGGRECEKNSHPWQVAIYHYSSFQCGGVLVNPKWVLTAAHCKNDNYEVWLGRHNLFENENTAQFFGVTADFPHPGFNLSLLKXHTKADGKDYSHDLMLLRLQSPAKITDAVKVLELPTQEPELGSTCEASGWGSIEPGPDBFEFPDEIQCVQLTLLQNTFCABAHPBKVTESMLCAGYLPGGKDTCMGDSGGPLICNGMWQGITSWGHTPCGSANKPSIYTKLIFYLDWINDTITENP
T5 sequence (P03951 19-387 limits assumed): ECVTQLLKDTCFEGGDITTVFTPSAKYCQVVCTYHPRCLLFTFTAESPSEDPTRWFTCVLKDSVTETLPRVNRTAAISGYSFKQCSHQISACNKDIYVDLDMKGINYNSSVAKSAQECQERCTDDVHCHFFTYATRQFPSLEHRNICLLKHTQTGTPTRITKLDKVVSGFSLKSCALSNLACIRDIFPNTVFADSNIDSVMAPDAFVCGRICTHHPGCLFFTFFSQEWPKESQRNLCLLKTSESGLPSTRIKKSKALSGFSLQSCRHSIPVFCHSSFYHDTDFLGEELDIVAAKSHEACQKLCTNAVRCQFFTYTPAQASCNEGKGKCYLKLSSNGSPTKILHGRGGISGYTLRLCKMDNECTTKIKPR
T5 sequence (P03951 388-625 limits assumed): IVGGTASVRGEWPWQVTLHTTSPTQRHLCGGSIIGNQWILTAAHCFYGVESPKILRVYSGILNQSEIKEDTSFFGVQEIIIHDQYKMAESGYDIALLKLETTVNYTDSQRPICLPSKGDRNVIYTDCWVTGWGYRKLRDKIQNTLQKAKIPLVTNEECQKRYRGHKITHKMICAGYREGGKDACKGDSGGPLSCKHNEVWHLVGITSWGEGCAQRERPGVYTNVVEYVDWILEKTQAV
T1 sequence (P06870 25-262): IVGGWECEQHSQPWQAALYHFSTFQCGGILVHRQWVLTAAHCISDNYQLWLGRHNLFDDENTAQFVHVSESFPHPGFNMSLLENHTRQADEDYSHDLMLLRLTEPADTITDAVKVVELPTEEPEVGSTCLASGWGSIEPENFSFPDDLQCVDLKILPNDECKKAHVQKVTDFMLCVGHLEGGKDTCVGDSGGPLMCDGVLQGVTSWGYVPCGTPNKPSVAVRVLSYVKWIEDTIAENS
T6 sequence (P00747 97-580 limits assumed): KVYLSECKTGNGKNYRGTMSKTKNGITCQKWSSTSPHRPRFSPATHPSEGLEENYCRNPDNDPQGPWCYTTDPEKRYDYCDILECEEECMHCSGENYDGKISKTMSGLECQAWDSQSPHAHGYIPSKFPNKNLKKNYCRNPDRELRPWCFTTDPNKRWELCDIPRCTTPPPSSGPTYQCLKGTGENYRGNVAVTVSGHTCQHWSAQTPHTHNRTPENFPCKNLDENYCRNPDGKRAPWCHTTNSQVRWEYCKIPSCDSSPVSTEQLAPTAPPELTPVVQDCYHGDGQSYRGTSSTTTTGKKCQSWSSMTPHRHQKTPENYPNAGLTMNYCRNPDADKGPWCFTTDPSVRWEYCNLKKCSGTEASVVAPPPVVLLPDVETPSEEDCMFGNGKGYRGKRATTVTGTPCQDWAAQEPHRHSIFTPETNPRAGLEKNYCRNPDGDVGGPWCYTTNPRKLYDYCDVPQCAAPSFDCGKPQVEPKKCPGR
T6 sequence (P00747 581-810 limits assumed): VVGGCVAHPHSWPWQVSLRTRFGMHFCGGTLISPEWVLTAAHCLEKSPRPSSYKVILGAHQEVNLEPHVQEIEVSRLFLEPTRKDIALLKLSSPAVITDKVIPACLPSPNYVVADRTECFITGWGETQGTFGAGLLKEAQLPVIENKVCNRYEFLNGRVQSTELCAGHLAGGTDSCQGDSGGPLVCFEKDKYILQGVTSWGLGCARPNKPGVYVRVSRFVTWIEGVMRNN

Row | Substance | Ki [1] | Ki [2] | Ki [3] | Ki [4] | Ki [5] | Ki [6] | Ki [7] | Ki [8] | Ki [9]
1 | EAMHSFCAFKADDGPCRAAHPRWFFNIFTRQCEEFIYGGCEGNQNRFESLEECKKMCTRD (disulfide 7-57, 16-40, 32-53) [PEP-1] | > 100 µM | 27 µM | > 200 µM | > 20 µM | 0.01 µM | 0.14 µM | > 20 µM | > 20 µM | 
2 | aprotinin [reference compound] |  |  |  | > 100 µM |  |  |  | > 100 µM | > 100 µM
